Data set [1] is described as follows: Storage stability of crystalline DOTAP chlorides (HPLC purity and content). The data set is classed as physicochemical. As to conditions: 25° C., 60% relative humidity, exclusion of air. The procedure:
In order to determine the stability of crystalline DOTAP chlorides, the substances are stored together with comparative samples at 25° C. and 60% relative humidity with exclusion of air. The remaining content of DOTAP chloride is measured at periodic intervals and quoted in comparison to the initial value.
The purity and content of DOTAP chloride are determined by means of HPLC.

Data set [2] is described as follows: DSC principal phase transition temperatures of multilamellar liposomes in water. As to conditions: heating cycles, lipid 0.1 g/ml, 1° C./min. In kind it is physicochemical. As to the method: Differential scanning caliometry (DSC) measurements are carried out on multilamellar liposomes in water. Liposomes are prepared by the thin-film method from the calculated amounts of racemic or enantiomerically pure DOTAP chloride. The lipid concentration here is in each case 0.1 g/ml. Suitable amounts of these dispersions are then introduced into sealable aluminium crucibles and measured using a 204 Phoenix calorimeter (Netzsch, Seib, Germany). In each case, three successive heating/cooling runs from −50° C. to +20° C. are carried out at 1° C./min.
For all three DOTAP chloride variants, phase transition temperatures below 0° C. are found. For the cooling cycles, this is in each case at −23° C. to −24° C. Differences between racemic and enantiomerically pure DOTAP chloride are in each case evident in the heating cycles. […] (see FIG. 6).

The nature of data set [3]: Solubility in acetonitrile. In kind it is physicochemical. As to conditions: room temperature.
The nature of data set [4]: Hygroscopicity at normal atmospheric humidity. The data set is classed as physicochemical. As to conditions: normal atmospheric humidity levels.
For data set [5] the following is noted: storage under protective gas at −20° C.; guaranteed by manufacturer; cited from earlier work.

With `CCCCCCCC/C=C\CCCCCCCC(=O)OCC(C[N+](C)(C)C)OC(=O)CCCCCCC/C=C\CCCCCCCC.[Cl-]` (racemic) [(R,S)-DOTAP chloride crystalline type I, N,N,N-trimethyl-2,3-bis[[(9Z)-1-oxo-9-octadecenyl]oxy]-1-propanaminium chloride], the “% by weight (content of DOTAP chloride)” value in data set [1] (exposure time 0 months) was determined as 98.6%; in data set [1] (exposure time 1 month) it was 97.%; in data set [1] (exposure time 2 months), 97.9%; in data set [1] (exposure time 3 months) it was 97.2%; in data set [1] (exposure time 6 months) it was 98.2%; in data set [1] (exposure time 12 months) it was 98.7%. For the same compound, the “Area-% (HPLC purity)” value in data set [1] (exposure time 0 months) amounted to 100%; in data set [1] (exposure time 1 month), 100.0%; in data set [1] (exposure time 2 months), 100.0%; in data set [1] (exposure time 3 months), 100.0%; in data set [1] (exposure time 6 months), 100.0%; in data set [1] (exposure time 12 months) it was 100.0%.

Turning to `CCCCCCCC/C=C\CCCCCCCC(=O)OCC(C[N+](C)(C)C)OC(=O)CCCCCCC/C=C\CCCCCCCC.[Cl-]` (racemic) [racemate, N,N,N-trimethyl-2,3-bis[[(9Z)-1-oxo-9-octadecenyl]oxy]-1-propanaminium chloride], the “endothermic phase transition temperature” value in data set [2] was −17.5 °C. In data set [3], the solubility in acetonitrile entry is recorded as “virtually insoluble”.

As to `CCCCCCCC/C=C\CCCCCCCC(=O)OC[C@@H](C[N+](C)(C)C)OC(=O)CCCCCCC/C=C\CCCCCCCC.[Cl-]` [(2R)-DOTAP chloride], in data set [2], the “endothermic phase transition temperature” value is “around −12.5 °C”.

`CCCCCCCC/C=C\CCCCCCCC(=O)OC[C@H](C[N+](C)(C)C)OC(=O)CCCCCCC/C=C\CCCCCCCC.[Cl-]` [(2S)-DOTAP]: the “endothermic phase transition temperature” value in data set [2] is “around −12.5 °C”.

Take `CCCCCCCC/C=C\CCCCCCCC(=O)OCC(C[N+](C)(C)C)OC(=O)CCCCCCC/C=C\CCCCCCCC.[Cl-]` (stereo not drawn) [amorphous DOTAP chloride]: in data set [4], the hygroscopicity entry was “extremely hygroscopic”. Moreover, the shelf life result in data set [5] is reported as “about 6 months”.

The values are drawn from patent publication US9457087B2, “Stable crystal modifications of DOTAP chloride” (Merck Patent GmbH, priority 2004, dated 2016).
